The values below come from US10772891B2, “Pyrazolo pyridine derivatives as NADPH oxidase inhibitors” (GENKYOTEX SUISSE SA, priority 2008, dated 2020).

For assay [1], the target named is T1, NOX (Homo sapiens, UniProt P04839).
T1 construct: NOX activity as measured by Amplex Red using DMSO-differentiated HL60 cells; endogenous in cells; host or cells: HL-60 cells differentiated to the neutrophil phenotype with Me2SO
T1 sequence (P04839 2-570 limits assumed): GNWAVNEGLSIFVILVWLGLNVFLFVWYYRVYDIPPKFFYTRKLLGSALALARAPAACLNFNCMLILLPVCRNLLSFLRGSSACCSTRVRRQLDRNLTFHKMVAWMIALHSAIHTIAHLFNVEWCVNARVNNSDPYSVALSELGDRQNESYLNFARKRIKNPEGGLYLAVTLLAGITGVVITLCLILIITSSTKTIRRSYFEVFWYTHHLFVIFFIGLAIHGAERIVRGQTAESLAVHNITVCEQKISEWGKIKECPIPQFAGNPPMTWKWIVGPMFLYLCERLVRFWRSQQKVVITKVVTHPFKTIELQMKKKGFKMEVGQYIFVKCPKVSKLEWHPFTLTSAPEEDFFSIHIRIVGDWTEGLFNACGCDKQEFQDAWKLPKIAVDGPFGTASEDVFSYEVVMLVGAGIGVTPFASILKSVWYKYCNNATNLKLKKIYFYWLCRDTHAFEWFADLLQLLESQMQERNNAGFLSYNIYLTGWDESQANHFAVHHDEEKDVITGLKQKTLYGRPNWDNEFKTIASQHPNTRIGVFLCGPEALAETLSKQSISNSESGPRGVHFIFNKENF
T1 sequence (P13498 1-195 partner): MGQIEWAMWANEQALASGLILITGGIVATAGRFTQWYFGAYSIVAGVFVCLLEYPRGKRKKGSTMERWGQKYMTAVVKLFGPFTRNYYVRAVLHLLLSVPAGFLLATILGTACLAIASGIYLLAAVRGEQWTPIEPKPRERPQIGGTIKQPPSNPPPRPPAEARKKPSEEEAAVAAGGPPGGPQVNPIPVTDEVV
In words: Amplex Red measurement of extracellular hydrogen peroxide (NOX activity) in DMSO-differentiated HL60 cells. It is filed as cell-based. As to the method: Human acute myeloid leukemia cell line HL-60 was cultured in RPMI 1640 (Invitrogen) supplemented with 10% heat-inactivated calf serum, 2 mM glutamine, 100 U/mL penicillin (Sigma), and 100 μg streptomycin (Sigma) at 37° C. under a humidified atmosphere of 5% CO2. HL60 differentiation to the neutrophil phenotype was triggered by adding Me2SO (final concentration 1.25% v/v for 6 days) to the culture medium.
Extracellular hydrogen peroxide was measured using Amplex UltraRed (Molecular Probes). Cells were trypsinized (1× Trypsin-EDTA), collected by centrifugation, and resuspended in HBSS supplemented with 1% glucose. Cells were seeded into black 96-well plates at a density of 50′000 cells in 200 μl testing buffer (HBSS 1% glucose containing 0.005 U/mL horseradish peroxidase (Roche) and 50 μM Amplex Red in the presence or absence of compounds according to the invention. As a control, DPI was included at a final concentration of 10 μM The plates were placed in the fluorescent Optima Fluorescent plate reader and kept at 37° C. during 20 min. Fluorescence was measured for 15 min with excitation and emission wavelengths of 544 nm and 590 nm respectively. NOX activities were expressed as % of the activity in control cells. Residual activity of DPI-treated cells was usually <10%. […]
The Table 2 below summarizes the IC50 of NOX activity as measured by Amplex Red using DMSO-differentiated HL60 cells as described above: […]

Assay [2] deals with NOX. Nature of the assay: Nitroblue tetrazolium (NBT) superoxide test in cells. In kind it is cell-based, human. The settings on record: DPI 10 μM, % of the activity in control cells, 'usually'. As to the method:
Intracellular and extracellular superoxide was measured by a colorimetric technique using a quantitative nitroblue tetrazolium (NBT) test. SOD-inhibitable conversion of NBT to formazan, a fine blue precipitate, in the presence of superoxide anion was measured using Fluostar Optima spectrometer (BMG labtech). Following incubation with appropriate stimuli, cells were trypsinized (1× Trypsin-EDTA), collected by centrifugation, and washed with PBS to remove medium. 5×10^5 cells were plated on 48-well plates and incubated in Hank's balanced salt solution containing 0.5 mg/mL NBT with or without 800 U/mL SOD in the presence or absence of compounds according to the invention. As a control, DPI was included at a final concentration of 10 μM. After 2.5 h, cells were fixed and washed with methanol to remove non reduced NBT. The reduced formazan was then dissolved in 230 μl of 2M potassium hydroxide and in 280 μl of dimethylsulfoxide. The absorption was measured at 630 nm. For calculation, the absorbance at 630 nm was normalized for each individual well. The mean of the four blank values was subtracted from each corrected value for each time point. NOX activities were expressed as % of the activity in control cells. Residual activity of DPI-treated cells was usually <10%.

Assay [3] concerns NOX. Nature of the assay: H2DCF-DA fluorescence in TGF-β stimulated HUVEC. It is filed as cell-based, human. The settings on record: % of the activity in control cells, 'usually'. As to the method:
HUVEC are cultured in endothelial basal medium supplemented with hydrocortisone (1 μg/mL, CalBioChem), bovine brain extract (12 μg/mL), gentamicin (50 μg/mL, CalBioChem), amphotericin B (50 ng/mL, CalBioChem EGF (10 ng/mL, and 10% FCS until the fourth passage. When the fifth passage was started, cells were cultured with a lower concentration of FCS (2%) in the absence of EGF, if not indicated otherwise. All experiments were done with cells of the fifth passage. The cells were incubated with OxLDL (oxidized low-density lipoprotein) or its buffer as control for 24 h, before detection of 02 formation.
HUVEC were plated on coverslips and made quiescent overnight in 0.5% BSA before stimulation with TGF-β. Cells were loaded for 10 minutes with 5 μM CM-H2DCFDA in phenol-red-free medium in the dark and then treated with TGF-β (R&D Systems) in the presence or absence of compounds according to the invention. Cells were then visualized by immunofluorescence microscopy after fixation and staining of the nuclei with DAPI or examined live using confocal microscopy. DCF fluorescence was visualized at an excitation wavelength of 488 nm and emission at 515 to 540 nm. […] For calculation, the absorbance at […] was normalized to absorbance at […] for each individual well. […] NOX activities were expressed as % of the activity in control cells. […]

The test system of assay [4] is NOX. Nature of the assay: Chemiluminescence (Luminol) ROS measurement in cells. It is filed as cell-based, human. The settings on record: % of the activity in control cells, 'usually'. As to the method:
ROS was measured using the chemiluminescent probe luminol. Cells were cultured and plated as for Amplex Red except that the Amplex Red agent was replaced by 10 μg/mL luminol (Sigma 09235). Light emission was recorded continuously at 37° C. for 60 minutes using the luminescence function of the FluoStar Optima fluorescent plate reader. The mean of the four blank values was subtracted from each corrected value for each time point. NOX activities were expressed as % of the activity in control cells. Residual activity of DPI-treated cells was usually <10%.

For the compound `Cc1c2c(=O)n(-c3ccccc3Cl)[nH]c2cc(=O)n1Cc1ccccc1N1CCOCC1` [Compound 1, 2-(2-chlorophenyl)-4-methyl-5-(2-morpholin-4-ylbenzyl)-1H-pyrazolo[4,3-c]pyridine-3,6(2H,5H)-dione], the IC50 (usually the midpoint of a concentration-inhibition curve) at NOX [1] is under 5 µM.

On to `Cc1c2c(=O)n(-c3ccccc3Cl)[nH]c2cc(=O)n1Cc1ccc(CN2CCN(C)CC2)cc1` [Compound 2, 2-(2-chlorophenyl)-4-methyl-5-{4-[(4-methylpiperazin-1-yl)methyl]benzyl}-1H-pyrazolo[4,3-c]pyridine-3,6(2H,5H)-dione], for which, at NOX [1], the IC50 was under 5 µM.

For the compound `Cc1c2c(=O)n(-c3ccccc3Cl)[nH]c2cc(=O)n1CC(c1ccccc1)N1CCOCC1` (centres unmarked) [Compound 3, 2-(2-chlorophenyl)-4-methyl-5-(2-morpholin-4-yl-2-phenylethyl)-1H-pyrazolo[4,3-c]pyridine-3,6(2H,5H)-dione], the IC50 against NOX [1] is under 5 µM.

In the case of `COc1cccc(CCn2c(C)c3c(=O)n(-c4ccccc4Cl)[nH]c3cc2=O)c1` [Compound 4, 2-(2-chlorophenyl)-5-[2-(3-methoxyphenyl)ethyl]-4-methyl-1H-pyrazolo[4,3-c]pyridine-3,6(2H,5H)-dione], on NOX [1], the IC50 was under 5 µM.

The compound `CCOCCCn1c(C)c2c(=O)n(-c3nc(-c4ccccc4)cs3)[nH]c2cc1=O` [Compound 7, 5-(3-ethoxypropyl)-4-methyl-2-(4-phenyl-1,3-thiazol-2-yl)-1H-pyrazolo[4,3-c]pyridine-3,6(2H,5H)-dione] gave an IC50 against NOX [1] of under 5 µM.

`Cc1c2c(=O)n(-c3ccccc3Cl)[nH]c2cc(=O)n1C` [Compound 8, 2-(2-chlorophenyl)-4,5-dimethyl-1H-pyrazolo[4,3-c]pyridine-3,6(2H,5H)-dione] displayed an IC50 against NOX [1] of under 5 µM.

Take `Cc1c2c(=O)n(-c3nc(-c4ccccc4)cs3)[nH]c2cc(=O)n1Cc1cccc(Oc2ccccc2)c1` [Compound 10, 4-methyl-5-(3-phenoxybenzyl)-2-(4-phenyl-1,3-thiazol-2-yl)-1H-pyrazolo[4,3-c]pyridine-3,6(2H,5H)-dione]: on NOX [1], the IC50 is under 5 µM.

As for `Cc1c2c(=O)n(-c3ccccc3Cl)[nH]c2cc(=O)n1NC(=O)COc1ccc(F)cc1` [Compound 13, N-[2-(2-chlorophenyl)-4-methyl-3,6-dioxo-1,2,3,6-tetra hydro-5H-pyrazolo[4,3-c]pyridin-5-yl]-2-(4-fluorophenoxy)acetamide], on NOX [1], the IC50 is under 5 µM.

Compound `Cc1c2c(=O)n(-c3ccccc3F)[nH]c2cc(=O)n1Cc1cccc(N2CCOCC2)n1` [Compound 20, 2-(2-fluorophenyl)-4-methyl-5-[(6-morpholin-4-ylpyridin-2-yl)methyl]-1H-pyrazolo[4,3-c]pyridine-3,6(2H,5H)-dione] returned an IC50 at NOX [1] of under 5 µM.

`Cc1c2c(=O)n(-c3cccc(Cl)c3)[nH]c2cc(=O)n1CCCC(=O)N1CCN(C)CC1` [Compound 28, 2-(3-chlorophenyl)-4-methyl-5-[4-(4-methylpiperazin-1-yl)-4-oxobutyl]-1H-pyrazolo[4,3-c]pyridine-3,6(2H,5H)-dione]: at NOX [1], the IC50 is under 5 µM.

On NOX [1], `Cc1c2c(=O)n(-c3ccccc3F)[nH]c2cc(=O)n1CC(=O)NCc1ccccn1` [Compound 30, 2-[2-(2-fluorophenyl)-4-methyl-3,6-dioxo-1,2,3,6-tetra hydro-5H-pyrazolo[4,3-c]pyridin-5-yl]-N-(pyridin-2-ylmethyl)acetamide] registered an IC50 of under 5 µM.

In the case of `c1ccc([I+]c2ccccc2)cc1` [DPI, Diphenyl-iodonium], the “Residual activity of DPI-treated cells” value with NOX [2], in the assay with NOX [3] and in the assay with NOX [4] was under 10% each time.
